Experimental findings from patent publication US20220088014A1 (priority 2019, published 2022) are described below.

Read-outs that look alike come from different tables or passages of the source.

Data set [1] can be described thus: Cue-induced reinstatement (relapse) in heroin addicted rats. In kind it is in vivo, male Long-Evans hooded rats.
A short description of data set [2]: Pretreatment study: effect on heroin self-administration. The class given is in vivo, rhesus monkeys.
For data set [3] the following is noted: rat, in vivo.
Data set [4] is described as follows: Dose-finding study: lever pressing for food (FR 10). Conditions: two monkeys.
A short description of data set [5]: Rat tolerance/dependence study, 28 day repeated dosing and withdrawal.
Data set [6] in a line: IV self-administration substitution study in heroin-maintained primates (FR 30).

As for `O=C1CN2c3c(cccc3[C@@H]3CN(CCCOc4ccc(F)cc4)CC[C@@H]32)N1` [Example 1, (6bR,10aS)-8-(3-(4-fluorophenoxy)propyl)-6b,7,8,9,10,10a-hexahydro-1H-pyrido[3′,4′:4,5]pyrrolo[1,2,3-de]quinoxalin-2(3H)-one], the “Active lever presses during the reinstatement test session” value in data set [1] (1 mg/kg s.c. 30 minutes pre-session) was 22.64; in data set [1] (3 mg/kg s.c. 30 minutes pre-session), 31.17; in data set [1] (10 mg/kg s.c. 30 minutes pre-session), 29.50. The entries for the “Heroin infusions per session (mean ± SEM, N = 4)” value in data set [2] (pretreatment 0.1 mg/kg IV 15 minutes prior), in data set [2] (pretreatment 1.0 mg/kg IV 15 minutes prior) and in data set [2] (pretreatment 1.0 mg/kg SC (100% PEG) 15 minutes prior) were 24.8 ± 0.8, 23.3 ± 2.8 and 24.5 ± 1.9, respectively. Moreover, the t-1/2 stood at 3.1 h in data set [3] (po, 10 mg/kg) and 9.5 h in data set [3] (sc, 3 mg/kg). Besides, the “average rate of responding for food” value in data set [4] (0.0001 mg/kg IV) was 0.94±0.01 responses per second; in data set [4] (0.001 mg/kg IV), 0.86±0.11 responses per second; in data set [4] (0.01 mg/kg IV), 0.97±0.21 responses per second; in data set [4] (0.1 mg/kg IV), 0.98±0.24 responses per second. The “predominant behavioral and physical effects during the dosing phase” value in data set [5] (0.3 mg/kg s.c. four times per day) was “hunched posture, Straub tail and piloerection”. Moreover, in data set [5] (0.3 and 3 mg/kg s.c. four times per day), the “tolerance during dosing for 28 days” value is recorded as “does not produce tolerance”. Further, in data set [5] (0.3 and 3 mg/kg s.c. four times per day, 28 days), the “physical dependence upon cessation of dosing” value is “not to produce a syndrome of physical dependence”. Moreover, the “effect on animal body weight, food and water intake or body temperature” value in data set [5] (0.3 and 3 mg/kg s.c. four times per day, on-dose or withdrawal phase) was “no significant effect”. Also, the “main behavioral and physical signs during the dosing phase” value in data set [5] (higher dose, 3 mg/kg s.c. four times per day) is “hunched posture, subdued behavior, Straub tail, tail rattle and piloerection”. Moreover, the results for the “Infusions per session (mean ± SEM, N = 4)” value in data set [6] (0.01 mg/kg/infusion IV) and in data set [6] (0.1 mg/kg/infusion IV) were 0.6 ± 0.2 and 1.5 ± 0.3, respectively.
For the compound `CN1CC[C@]23c4c5ccc(O)c4O[C@H]2[C@@H](O)C=C[C@H]3[C@H]1C5` [Morphine, morphine, reference compound], the tolerance and dependence result in data set [5] (30 mg/kg orally twice per day, 28 days) is “clear signs of tolerance and dependence”.
